The values below are quoted from earlier work in patent US20090317456A1, “USE OF ONCOLYTIC VIRUSES AND ANTIANGIOGENIC AGENTS IN THE TREATMENT OF CANCER” (priority 2006, published 2009).

For data set [1], the system named is metastatic colorectal cancer. As to conditions: bevacizumab added to FOLFOX or FOLFIRI; prolonged from 12 months without.
Data set [2] concerns VEGFR tyrosine kinases, including VEGFR-3. As to conditions: all known VEGFR tyrosine kinases.

Turning to “bevacizumab: humanized anti-VEGF monoclonal antibody (Avastin, Genentech)”, the median survival in data set [1] was 20 months. As to `Clc1ccc(Nc2nnc(Cc3ccncc3)c3ccccc23)cc1` [PTK 787/ZK 222584], the “inhibition of VEGFR tyrosine kinases” value in data set [2] is on record as “lower nanomolar range”. For the same compound, the “inhibition of PDGFR” value in the data set with PDGFR is “nanomolar range”.
